Experimental data from article PMC6370995, “Phase I study of PF‐04895162, a Kv7 channel opener, reveals unexpected hepatotoxicity in healthy subjects, but not rats or monkeys: clinical evidence of disrupted bile acid homeostasis” (Pharmacology Research & Perspectives, 2019).

Legend:
human hepatocytes = test: mitochondrial respiratory reserve in human hepatocytes; type: cell-based; conditions: human hepatocytes treated for 25 minutes (data not shown)
MRP4 = target: T1, MRP4 (Homo sapiens, UniProt O15439); test: MRP4 transporter inhibition in vesicles from HEK293 cells; type: biochemical
T1 construct: host or cells: membrane vesicles from HEK293 cells
T1 sequence (O15439 1-1325): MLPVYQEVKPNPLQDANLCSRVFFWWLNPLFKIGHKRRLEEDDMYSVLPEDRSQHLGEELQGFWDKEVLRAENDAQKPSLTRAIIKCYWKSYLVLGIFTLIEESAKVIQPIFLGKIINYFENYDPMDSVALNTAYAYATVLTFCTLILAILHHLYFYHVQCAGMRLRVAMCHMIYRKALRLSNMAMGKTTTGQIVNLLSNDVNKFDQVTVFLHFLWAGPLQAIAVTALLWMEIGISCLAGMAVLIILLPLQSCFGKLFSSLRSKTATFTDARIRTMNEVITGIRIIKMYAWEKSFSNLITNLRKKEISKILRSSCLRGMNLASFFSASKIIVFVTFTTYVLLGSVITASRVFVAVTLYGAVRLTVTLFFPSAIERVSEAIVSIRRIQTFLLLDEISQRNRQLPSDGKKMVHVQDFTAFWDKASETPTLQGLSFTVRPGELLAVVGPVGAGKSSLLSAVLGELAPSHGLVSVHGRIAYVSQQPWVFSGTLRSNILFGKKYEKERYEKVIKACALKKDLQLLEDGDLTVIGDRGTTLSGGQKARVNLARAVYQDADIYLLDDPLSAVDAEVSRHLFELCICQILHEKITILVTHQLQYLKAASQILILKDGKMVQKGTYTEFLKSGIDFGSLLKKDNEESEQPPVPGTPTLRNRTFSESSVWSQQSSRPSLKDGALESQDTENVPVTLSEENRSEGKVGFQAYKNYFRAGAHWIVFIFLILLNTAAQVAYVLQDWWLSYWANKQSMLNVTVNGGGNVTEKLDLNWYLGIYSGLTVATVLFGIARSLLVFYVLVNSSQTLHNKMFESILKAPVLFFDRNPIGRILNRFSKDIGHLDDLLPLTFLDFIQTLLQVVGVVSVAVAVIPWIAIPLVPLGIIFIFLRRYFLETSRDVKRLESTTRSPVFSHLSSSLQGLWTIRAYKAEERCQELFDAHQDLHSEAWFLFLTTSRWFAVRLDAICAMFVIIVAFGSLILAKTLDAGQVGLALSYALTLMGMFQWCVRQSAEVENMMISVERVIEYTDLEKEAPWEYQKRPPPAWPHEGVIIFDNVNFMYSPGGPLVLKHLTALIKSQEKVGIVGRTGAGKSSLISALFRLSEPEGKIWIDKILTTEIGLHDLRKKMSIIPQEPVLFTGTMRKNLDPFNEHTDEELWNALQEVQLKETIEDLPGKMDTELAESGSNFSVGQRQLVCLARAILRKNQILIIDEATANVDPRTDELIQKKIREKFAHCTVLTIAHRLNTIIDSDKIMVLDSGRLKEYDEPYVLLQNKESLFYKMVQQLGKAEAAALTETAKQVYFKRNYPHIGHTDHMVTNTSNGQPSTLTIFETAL
Source text: […]

SMILES: O=C(Cc1ccc(F)cc1)Nn1c(C2CC2)nc2cc(F)ccc2c1=O [PF‐04895162, N‐(2‐cyclopropyl‐7‐fluoro‐4‐oxoquinazolin‐3(4H)‐yl)‐2‐(4‐fluorophenyl)ethanamide]
- Concentrations at which mitochondrial respiratory reserve was compromised (human hepatocytes): > 11 µmol/L
- IC50 (MRP4): 121 µM
